The source of these data is patent US8303907B2, “Biosensors, and method and kits for using same” (priority 2002, dated 2012).

The subject of experiment [1] is algaes native. The conditions noted are these: algaes native (fluorescence), Conrad (1993); cited from earlier work.
In experiment [2] the test system is stabilised thylakoid membranes. Briefly: Inhibition of photosynthetic efficiency of stabilised thylakoid membranes measured by fluorescence (F2-F1)/F2. The class given is biochemical, spinach. The source says:
In a specific embodiment, a fluorometer continuously illuminates weakly the photosynthetic biological material with a light emitting diode (LED) emitting light at a wavelength of 475 or at 660 nm. Better results were obtained with the 475 nm wavelength. In order to obtain a higher sensitivity for measuring the photosynthetic response to toxic molecules, the intensity of the low excitation light was adjusted so as to obtain a F1 fluorescence level slightly higher than F0.
Fluorescence measured 2 sec after turning on one LED is F1. Three additional LEDs are then turned on so as to induce actinic illumination F2. Dispersion of LEDs is illustrated in FIG. 1. Light beams are oriented so as to form together a point of convergence precisely at the level where the photodiode is read. After a specific time, selected according to the nature of the thylakoid membranes used (eg. source of thylakoids, etc.) (Table 1), of the background noise and of the level of sensitivity sought, the F2 fluorescence is measured. To determine F1 and F2, the fluorometer measures wavelengths higher than 650 nm when the illumination is at 475 nm, and higher than 700 nm when illumination is at 660 nm.
The photosynthetic efficiency is determined with the following formula (F2−F1)/F2. Preferably, the photosynthetic efficiency of the stabilised thylakoids is 0.8±0.1. Any molecule affecting the photosystems modifies either F1 or F2 which modification necessarily disrupts (increases or decreases) the photosynthetic efficiency. The inhibition curve of a particular molecule is determined by calculating the activity of the photosystems in the absence of the molecule and in the presence of the molecule and comparing both efficiency as follows as described in Conrad 1993:
Without inhibitor (wi): efficiency(wi)=(F2(wi)−F1(wi))/F2(wi) With inhibitor: Relative photosynthetic efficiency(sample)=(F2(sample)−F1(sample))/F2(wi) Percentage efficiency: efficiency (%)=(efficiency(sample)×100)/efficiency(wi) Percentage inhibition: Inhibition (%)=100−efficiency (%)
The individual test tubes (100 μL lyophilised thylakoid membranes) were resuspended in 2 mL of water or tested samples. The concentrated batch of test tubes was resuspended in water, in Buffer 1 (HEPES-NaOH 50 mM pH 7.5 buffer containing sucrose 330 mM, MgCl2 20 mM, NH4Cl 10 mM, PEG 4000 4% (p/v)); or in Buffer 2 (phosphate buffer 0.1 M pH 6.5 containing sucrose 330 mM, NH4Cl 10 mM, MgCl2 20 mM, EDTA 10 mM, PEG 4000 4% (p/v)). A combination of buffered solutions 1 and 2 may also be used. […] These different buffers rs produce different results in the detection sensitivity (see Table 3 above). The final volume obtained depends on the quantity of lyophilised membranes used (2.5 mL for 25 tests, 5 mL for 50 tests).
Before use, the tubes containing stabilised thylakoid membranes were retrieved from storage. If they were stored in the freezer or the refrigerator, they were tempered 30 minutes at room temperature and in the dark. Two milliliters of fluid samples and the required volume of MgCl2 mother solution to get 0-10 mM MgCl2 (depending on tested samples) were added to 100 μL of the thylakoids membranes formulation at a concentration of 5 μg/mL. The tubes are then shook by inversion for 2 min. […]

Experiment [3] relates to Physically immobilised thylakoids. To be noted: physically immobilised thylakoids (electrochemistry), Laberge (2000); cited from earlier work.
Experiment [4] deals with T1, PSII (Thermosynechococcus vestitus, UniProt P0A444). The conditions noted are these: PSII Clark electrode (amperometry), Koblizek (2002), cited from earlier work.
The test system of experiment [5] is Chemically immobilised thylakoids. The conditions noted are these: chemically immobilised thylakoids (electrochemistry), Laberge (1999); cited from earlier work.
The test system of experiment [6] is algaes native. The conditions noted are these: algaes native (fluorescence), Jay (1997); cited from earlier work.
Experiment [7] has as its target T1, PSII. To be noted: cited from earlier work.
Setting [8] is: Buffer 1 + 5 mM MgCl2 (in cuvette).
Setting [9] is: membranes resuspended in Buffer 1.
Where [10] appears, read: membranes resuspended in Buffer 2.
[11] abbreviates: stabilised thylakoid membranes of the present invention (fluorescence).

SMILES strings stand for the structures. Values after ≈ are worked out from the molar mass of the structure shown. Where two headings read alike, the source gives them in different places.

On to `CN(C)C(=O)Nc1ccc(Cl)c(Cl)c1` [Diuron], for which the IC50 with algaes native [1] is 959 µg/mL (≈ 4110 µM); in experiment [2] (setting [8]) it was 0.011 µg/mL; in experiment [2] (setting [9]) it was 0.022 µg/mL; in experiment [2] (setting [10]), 0.02 µg/mL; in experiment [2] (setting [11]) it was 71 µg/mL; in experiment [3], 130 µg/mL (≈ 558 µM). Further, the IC50 on PSII [4] (read-out: IC50 (converted)) was 81.5 µM; in experiment [5], 120 µg/mL (≈ 515 µM); in the experiment on algaes native [6] it was 12 µg/mL (≈ 51.5 µM); on PSII [7] it was 686 µM. The Threshold is on record as 0.002 mg/L in experiment [2] (setting [8]); 0.0006 mg/L in experiment [2] (setting [9]); under 0.001 mg/L in experiment [2] (setting [10]); 0.002 mg/L in experiment [2] (setting [11]); 0.0001 mg/L on PSII [4]; 0.01 mg/L in experiment [5]. Besides, the Threshold in the experiment on algaes native [6] was 0.002 mg/L.

As a reminder, the IC50 is the concentration that gives 50% inhibition.
